ChEMBL document CHEMBL1153162, “Total synthesis and biological evaluation of methylgerambullone” (2010)

What was measured:
Conditions in all cases: Cavia porcellus
Ileum [1] = test: […] activity in longitudinal smooth muscle of guinea pig ileum assessed as inhibition of acetylcholine-induced contraction; format: functional, tissue-based
Ileum [2] = test: […] activity in longitudinal smooth muscle of guinea pig ileum assessed as inhibition of acetylcholine-induced contraction at 60 mg/L; format: functional
Ileum [3] = test: […] activity in longitudinal smooth muscle of guinea pig ileum assessed as inhibition of acetylcholine-induced contraction at 30 mg/L; format: functional
Ileum [4] = test: […] activity in longitudinal smooth muscle of guinea pig ileum assessed as inhibition of acetylcholine-induced contraction at 100 mg/L; format: functional

SMILES: CC(C)=CC(=O)C/C(C)=C/COc1ccc(CCN(C)C(=O)/C=C/S(C)(=O)=O)cc1 [METHYLGERAMBULLONE]
- Activity (Ileum [1]): Dose-dependent effect
- inhibition at 60 µg/mL (Ileum [2]): 70%
- inhibition at 30 µg/mL (Ileum [3]): 45.3%
- inhibition at 100 µg/mL (Ileum [4]): 78.7%
